From patent publication US12173320B2, “Production of red blood cells and platelets from stem cells” (BOSTON MEDICAL CENTER CORPORATION, priority 2012, dated 2024)

What was measured:
[1] = test system: AhR (CYP1B1 target gene expression) in iPSCs; assay: Quantitative RT-PCR of AhR target gene CYP1B1 in iPSCs; type: cell-based, human
Experimental: RNA was extracted using the RNeasy kit (Qiagen) according to the manufacturer's instructions and DNase treated using the DNA-free kit (Ambion AM1906). Reverse transcription into cDNA was performed using the High Capacity cDNA Reverse Transcription Kit (Applied Biosystems 4368814). Quantitative (real time) PCR amplification of cDNA was performed using Taqman probes for AHR (Hs00169233 ml), CYP1B1 (Hs002382916 sl), HBA (Hs00361191 gl), HBB (Hs00758889 sl), HBG (Hs01629437 sl), vWF (Hs00169795 ml), PF4 (Hs00427220 gl), NF-E2 (Hs00232351 ml) and CD62P (Hs00927900 ml) and run on the Applied Biosystems StepOne machine. […]
To characterize AhR expression and functionality in both undifferentiated iPSCs and directly differentiated MEPs, AhR protein levels were determined via Western blot in these populations. AhR receptor was robustly expressed in day 30 and day 60 MEPs (FIG. 4A). However, AhR protein was not detected by western blotting in iPSC populations, and we postulated that AhR was expressed at extremely low levels in iPSCs, i.e., below the level of detectability with the antibodies used for Western blots. To test this hypothesis, the ability of FICZ to induce a prototypic AhR-target gene, CYPIB1, in iPSCs or, as a positive control, MEPs was assessed by quantitative RT-PCR.

[2] = test system: AhR; assay: Lentiviral AhR reporter (MMTV-DRE dsRed / luciferase) in MEPs; type: cell-based, human; details: day 30 MEPs, FICZ increased to 0.4 μM
[3] = test system: iPSC-derived MEPs; assay: Immunophenotyping of MEP lineage specification (CD235, CD71, CD41 FACS); type: cell-based, human; details: MEPs in feeder-free conditions, continuous FICZ, day 15 to 30 and later
Experimental: Roughly 10^5 cells were collected, spun, and re-suspended in 0.5% BSA in PBS. Samples were incubated for 30 min at ambient temperature with human antibodies including CD41a-FITC (BD 555466), CD235-PE (BD 555570), CD71-FITC (BD 555536), washed and spun at 3300 rpm for 7 min, and re-suspended in 0.5% BSA in PBS with 1 ug/ml Propidium Iodide. Samples were run on a BD FACScalibur using Cellquest Pro software and analyzed via FloJo 8.7. For ploidy analysis, cells were treated with 1.5% NP-40 (Boston Bioproducts P-872) and 62.5 ug/ml Propidium Iodide in PBS immediately before FACScalibur interrogation. For murine bone marrow, samples were first incubated for 5 min at ambient temperature with murine conjugated antibody CD16/32 (BD 553142) before a 30 min incubation with c-Kit-PE (BD 553355), CD41a-FITC (BD 553848), Ter119-PE (BD 553673). For cell viability assays, 2-3×10 ^5 cells were collected, re-suspended in 8.8 ug/ml Hoecsht 33342 in PBS supplemented with 5% FBS. Samples were then incubated in the dark at 37° C. for 15 min, washed, and re-suspended in 1 ug/ml Propidium Iodide in 5% FBS. Samples were run on an LSR-II machine with FACSDiva software and analyzed via FloJo 8.7.
In our previous studies in which we noted exponential expansion of iPSC-derived MEPs (FIG. 3), the AhR-mediated effect that we noted allowed us to culture cells for extended periods of time (>120 days). […]

[4] = In vivo blood cell counts (Hemavet) in normal mice; design: species or system mouse
Experimental: C57B16 mice were injected daily intraperitoneally with FICZ suspended in vegetable oil using a weekly dose escalation scheme (Week 1: 1 mg/kg; Week 2: 2 mg/kg; Week 3: 4 mg/kg). Blood cell counts were assayed by Hemavet quantification of peripheral blood bleeds, at all 3 time points (Day 7, 14, and 21). Following the 3 week time point, mice were sacrificed and livers and spleens harvested for quantitative RT-PCR analyses.
To determine if FICZ treatment or whole animals would affect RBC or platelet production, C57B16 mice were injected daily intraperitoneally with FICZ suspended in vegetable oil using a weekly dose escalation scheme (Week 1: 1 mg/kg; Week 2: 2 mg/kg; Week 3: 4 mg/kg). […] Following the 3 week time point, mice were sacrificed and livers and spleens harvested.

[5] = C57B16 mice, daily i.p. dose escalation

O=Cc1c2c(cc3c1=Nc1ccccc1-3)=Nc1ccccc1-2 [FICZ, 6-formylindolo[3,2-b]carbazole]
CYP1B1 expression [1]: statistically significant increases | DsRed reporter expression [2]: significant increase | erythroid specification (CD71 / CD235 expression) [3]: progressive erythroid specification and maturation | red blood cell (RBC) counts [4, 5]: None of the mice in the study showed significant variations | white blood cell (WBC) counts [4, 5]: None of the mice in the study showed significant variations | platelet counts ([4]; C57B16 mice, daily i.p., 1, 2, 4 mg/kg weekly escalation, Day 7, 14 and 21, versus mock or vehicle): increased platelet counts | platelet response ([4]; one mouse immediately exposed to higher doses (4 mg/kg), no week 1 escalation): more immediate and prolific platelet response
